Results on 1 compound are retold here after patent publication US20220151276A1, “COMPOSITION CONTAINING PLANT-DERIVED EXTRACT AND/OR PLANT-DERIVED PROCESSED PRODUCT” (OTSUKA PHARMACEUTICAL CO., LTD., priority 2019, published 2022).

For this assay, the system named is healthy adult males. Put plainly: Incremental loading exercise test with bicycle. The assay is classed as in vivo, human. The protocol:
For 25 healthy adult males, 3 dosages of kaempferol-containing cookie-shaped foods (containing 2.5 mg, 10 mg, or 25 mg of kaempferol, respectively) and a placebo cookie-shaped food (kaempferol-free) were used as test foods, and a once-a-day ingestion for consecutive 8 days were repeated four times by the crossover method. 3 hours after a test food ingestion on day 1 (Single ingestion) and on day 8 (Consecutive ingestion), an incremental loading exercise with bicycle was performed while sampling the exhaled gas to determine the oxygen consumption. The Heart rate and the rating of perceived exertion were monitored during exercise. Dynamic/kinetic visual acuity was measured before and after the exercise. Details of each endpoint are given below. Oxygen consumption (VO2) (mL/min/kg) was calculated from the difference between the amount of oxygen in the inhaled gas (atmosphere) and the amount of oxygen in the exhaled gas. When a weight of the pedal approaches a subject's limit during incremental loading exercise with bicycle, a heart rate (HR) is maximized. The increase in heart rate from the resting heart rate to the maximum heart rate was defined as 100% of exercise intensity, and the oxygen consumption (VO2) was plotted at each exercise intensity. That is, for example, an exercise intensity of 50% HR is calculated by the following equation: 100×(x−Resting heart rate)/(Maximum heart rate−Resting heart rate)=50% HR, and the oxygen consumption (VO2) in which the heart rate is the “x” means “oxygen consumption (VO2) at an exercise intensity of 50% HR”. Oxygen consumption efficiency was calculated by the following equation. Oxygen consumption efficiency (VO2/VE)=oxygen consumption/ventilation The oxygen uptake efficiency slope (OUES) was calculated using the ventilation and VO2 every 1 min from the beginning of the incremental loading exercise. Specifically, a graph of linearity was obtained by plotting “logarithmic value of ventilation (VE)” on the horizontal axis and “VO2” on the vertical axis, and the slope of the linear function graph was defined as OUES. For details, see Non-Patent Document 5. Exercise intensity (% HR) and rating of perceived exertion (RPE) at the oxygen consumption (VO2) of 14 mL/min/kg and 24.5 mL/min/kg in incremental loading exercise (the levels of stair climbing and jogging, respectively) were evaluated. The calculation methods for oxygen consumption (VO2) and exercise intensity (% HR) are the same as those described above. The perceived exertion was rated by the subject according to the following table at 1-minute intervals from the beginning of the incremental loading exercise, and the scales rated by each subject were averaged to give the rating of perceived exertion (RPE).

[1] abbreviates: single and consecutive ingestion, at VO2 of 14 mL/min/kg (stair climbing) and 24.5 mL/min/kg (jogging), compared with no intake of kaempferol.
Where [2] appears, read: single and consecutive ingestion, incremental loading exercise, compared with no intake of kaempferol.

Turning to `O=c1c(O)c(-c2ccc(O)cc2)oc2cc(O)cc(O)c12` [kaempferol], the “oxygen consumption efficiency (VO2/VE)” value (single and consecutive ingestion, after initiation of incremental loading exercise, compared with no intake of kaempferol) was “increased oxygen consumption efficiency”. Besides, under setting [1], the “exercise intensity (% HR) at given oxygen consumption” value is “decreased exercise intensity” and the “rating of perceived exertion (RPE)” value was “decreased rating of perceived exertion”. Under setting [2], the “maximum exercise load (Pedal Weight (watt))” value was “increased maximum exercise load”, the “maximum oxygen consumption (VO2peak)” value was “increased maximum oxygen consumption” and the “oxygen uptake efficiency slope (OUES)” value is recorded as “increased oxygen uptake efficiency slope”. For the same compound, where the note is “single ingestion (day 1) and consecutive ingestion (day 8), 3 hours after ingestion, exercise intensities 50-100% HR, compared with no intake of kaempferol (placebo)”, the “oxygen consumption (VO2) at each exercise intensity” value is given as “increased oxygen consumption at all exercise intensities”.
